Assay results published in the NIST ThermoML archive (doi:10.1016/j.jct.2013.08.034).

What was measured:
[1] = Liquid; for electrical conductivity / viscosity: 101 kPa; for electrical conductivity: Conductivity Meter Jenco 3107; for viscosity: Cone and plate viscometry; for mass density: 101.33 kPa, Vibrating tube method
[2] = xn = mol fraction of the nth substance listed; conditions: 101 kPa, Liquid, x1 = 1; for electrical conductivity: Conductivity Meter Jenco 3107; for viscosity: Cone and plate viscometry

CCCC[n+]1ccn(C)c1.O=S(=O)([N-]S(=O)(=O)C(F)(F)F)C(F)(F)F
[1]
Conditions | electrical conductivity [S/m] | mass density [kg/m3] | viscosity [mPa·s]
293.15 K | 0.337 | 1439.27 | 62.08
298.15 K | 0.4 | 1434.3 | 50.05
303.15 K | 0.472 | 1429.4 | 41.24
308.15 K | 0.552 | 1424.57 | 33.65
313.15 K | 0.64 | 1419.61 | 28.28
318.15 K | 0.733 | 1414.67 | 23.91
323.15 K | 0.835 | 1409.65 | 20.64
328.15 K | 0.944 | – | 17.9
333.15 K | – | – | 15.51

CCCC[n+]1ccn(C)c1.O=S(=O)([N-]S(=O)(=O)C(F)(F)F)C(F)(F)F + CC1COC(=O)O1
[2]
Conditions | electrical conductivity [S/m] | viscosity [mPa·s]
293.15 K | 0.337 | 62.08
298.15 K | 0.4 | 50.05
303.15 K | 0.472 | 41.24
308.15 K | 0.552 | 33.65
313.15 K | 0.64 | 28.28
318.15 K | 0.733 | 23.91
323.15 K | 0.835 | 20.64
328.15 K | 0.944 | 17.9
333.15 K | – | 15.51

CC1COC(=O)O1 (configuration not stated) [4-methyl-1,3-dioxolan-2-one]
[1]
Conditions | mass density [kg/m3] | viscosity [mPa·s]
293.15 K | 1204.81 | 2.86
298.15 K | 1199.02 | 2.65
303.15 K | 1194 | 2.44
308.15 K | 1188.57 | 2.23
313.15 K | 1183.11 | 2.05
318.15 K | 1177.55 | 1.9
323.15 K | 1171.96 | 1.78
328.15 K | – | 1.63
333.15 K | – | 1.54
